The structures appear in SMILES notation.

Consider 79 molecules from the RepoRT retention time repository.

A short description of this data set: Waters ACQUITY UPLC BEH C18, 100 × 2.1 mm, 1.7 µm, 40 °C, 0.3 to 0.4 mL/min, estimated dead time 0.63 min; A: water + 0.1% formic acid; B: methanol + 0.1% formic acid; gradient (min/%B) 0/0.5 0.1/0.5 10/80 10.1/99.5 12/99.5. As to conditions: stereoisomer not certain.
As for `COc1ccc(-c2cc(=O)c3c(O)cc(OC4OC(COC5OC(C)C(O)C(O)C5O)C(O)C(O)C4O)cc3o2)cc1` (centres undefined), the LC retention time is 5.19 min.

For the molecule `COc1cc2ccc(=O)oc2cc1OC1OC(CO)C(O)C(O)C1O` (centres undefined), the LC retention time was 3.11 min.

With `COc1cc(C(O)C(CO)Oc2c(OC)cc(-c3cc(=O)c4c(O)cc(OC5OC(COC(=O)CC(=O)O)C(O)C(O)C5O)cc4o3)cc2OC)ccc1O` (centres undefined), the LC retention time is 5.17 min.

`COc1ccc(-c2coc3cc(O)cc(O)c3c2=O)cc1`: the LC retention time is 7.63 min.

Consider `C=CC1CN2CCC1CC2C(O)c1ccnc2ccccc12` (centres undefined), for which the LC retention time is 3.09 min.

Turning to `CC1CCC2C(C)C3C(CC4C5CC=C6CC(O)CCC6(C)C5CC(O)C43CO)N2C1` (centres undefined), the LC retention time is 3.7 min.

As for `COc1c(O)cc2c(c1O)C1OC(CO)C(O)C(O)C1OC2=O` (centres undefined), the LC retention time was 2.86 min.

For the molecule `COc1ccc(CCC(=O)c2c(O)cc(OC3OC(CO)C(O)C(O)C3OC3OC(C)C(O)C(O)C3O)cc2O)cc1O` (centres undefined), the LC retention time was 5.07 min.

Consider `CC1OC(OCC2OC(Oc3cc4c(O)cc(O)cc4[o+]c3-c3ccc(O)c(O)c3)C(OC3OC(CO)C(O)C(O)C3O)C(O)C2O)C(O)C(O)C1O` (centres undefined), for which the LC retention time was 2.75 min.

For the molecule `NC(CCC(=O)NC(Cc1ccc(O)cc1)C(=O)O)C(=O)O` (centres undefined), the LC retention time was 2.36 min.

For `CCC1=NC2CC3(C(=O)N(OC)c4ccccc43)C3CC1C2CO3` (centres undefined), the LC retention time is 3.99 min.

In the case of `O=c1cc(-c2ccc(O)c(O)c2)oc2cc(O)c(C3OC(CO)C(O)C(O)C3O)c(O)c12` (centres undefined), the LC retention time is 3.59 min.

`CC1OC(Oc2c(-c3ccc(O)c(O)c3)oc3cc(OC4OC(CO)C(O)C(O)C4O)cc(O)c3c2=O)C(OC2OC(COC(=O)C=Cc3ccc(O)cc3)C(O)C(O)C2O)C(O)C1O` (centres undefined): the LC retention time is 4.48 min.

Turning to `O=C(C=Cc1ccc(O)cc1)OCC1OC(OC2C(c3c(O)cc4oc(-c5ccc(O)cc5)cc(=O)c4c3O)OC(CO)C(O)C2O)C(O)C(O)C1O` (centres undefined), the LC retention time was 4.21 min.

As to `COc1cc(-c2cc(=O)c3c(O)cc(OC4OC(COC(=O)CC(=O)O)C(O)C(O)C4O)cc3o2)cc(OC)c1O` (centres undefined), the LC retention time is 4.91 min.

As to `CC(C)CC(N)C(=O)NC(CC(C)C)C(=O)O` (centres undefined), the LC retention time is 3.29 min.

With `C=CC12CN(C)C3CC14C(=Nc1ccccc14)C1CC2C3CO1` (centres undefined), the LC retention time is 3.58 min.

For `CCC=CCC=CCC=CCCCCCCCC(=O)OCC(O)COP(=O)([O-])OCC[N+](C)(C)C` (centres undefined), the LC retention time was 8.93 min.

Turning to `CCC12C=CCN3CCc4c(n(c5ccccc45)C(O)(C(=O)OC)C1)C32` (centres undefined), the LC retention time was 4.26 min.

For `COC(=O)C1CC23CCC[N+]4([O-])CCC5(c6ccccc6NC15CC2)C34` (centres undefined), the LC retention time is 4.18 min.

As to `CC(C)=CCc1c(O)cc(O)c2c1OC(c1ccc(O)cc1)CC2=O` (centres undefined), the LC retention time is 8.76 min.

In the case of `NCCc1ccc(O)cc1`, the LC retention time was 1.83 min.

Turning to `Nc1ncnc2c1ncn2C1OC(CO)C(O)C1O` (centres undefined), the LC retention time was 1.88 min.

Turning to `Cc1ccc([N+](=O)[O-])cc1N`, the LC retention time is 2.34 min.

For the molecule `CCC(C)=CCCC(C)(OC1OC(COC2OCC(O)C(O)C2O)C(O)C(O)C1O)C1CCC2(C)C3CCC4C(C)(C)C(OC5OC(CO)C(O)C(O)C5OC5OC(CO)C(O)C(O)C5O)CCC4(C)C3CC(O)C12` (centres undefined), the LC retention time is 6.19 min.

As for `COc1cc2oc(-c3ccc(O)cc3)cc(=O)c2c(O)c1C1OC(CO)C(O)C(O)C1O` (centres undefined), the LC retention time is 4.08 min.

Consider `COc1c2c(cc3c1OCO3)CCN(C)C2`, for which the LC retention time is 3.33 min.

For the molecule `C=CC1C(OC2OC(CO)C(O)C(O)C2O)OC=C(C(=O)OC)C1CC=O` (centres undefined), the LC retention time was 3.84 min.

Consider `CC(C)CC(N)C(=O)NC(C(=O)O)C(C)C` (centres undefined), for which the LC retention time is 2.66 min.

With `CC(C)=CCc1c(O)ccc(-c2coc3cc(O)cc(O)c3c2=O)c1O`, the LC retention time is 7.57 min.

As for `COC(=O)C1=COC(C)C2CN3CCC4(C(=O)Nc5c4ccc(OC)c5OC)C3CC12` (centres undefined), the LC retention time was 4.48 min.

For the molecule `C1CCC(C23CC(CC4CCCNC42)C2CCCCN2C3)NC1` (centres undefined), the LC retention time was 2.24 min.

For `C=C(C)C1CNC(C(=O)O)C1CC(=O)O` (centres undefined), the LC retention time was 2.44 min.

In the case of `CN1CCCC1c1cccnc1` (centres undefined), the LC retention time was 1.62 min.

Consider `COc1cc(-c2cc(=O)c3c(O)cc(OC4OC(C(=O)O)C(O)C(O)C4OC4OC(COC(=O)C=Cc5ccc(O)cc5)C(O)C(O)C4O)cc3o2)cc(OC)c1O` (centres undefined), for which the LC retention time is 4.9 min.

With `O=C(O)c1cc(O)c(O)c(O)c1`, the LC retention time is 2.04 min.

Consider `O=c1cc(-c2ccc(O)cc2)oc2cc(OC3OC(CO)C(O)C(O)C3O)c(C3OC(CO)C(O)C(O)C3O)c(O)c12` (centres undefined), for which the LC retention time is 3.52 min.

With `COc1c(OC2OC(CO)C(O)C(O)C2O)cc2oc(-c3ccc(O)c(O)c3)c(O)c(=O)c2c1O` (centres undefined), the LC retention time is 4.58 min.

Consider `CC(C)=CCc1c(O)cc(O)c(CC=C(C)C)c1CCc1ccc(O)c(O)c1`, for which the LC retention time was 7.84 min.

`CCC1(O)C(=O)OCc2c1cc1n(c2=O)Cc2cc3c([N+](=O)[O-])cccc3nc2-1` (centres undefined): the LC retention time is 5.87 min.

As to `COc1cc(-c2oc3cc(OC4OC(C)C(O)C(O)C4O)cc(O)c3c(=O)c2O)ccc1O` (centres undefined), the LC retention time is 3.72 min.

On to `COC(=O)C1CC23CCCN4CCC5(c6ccccc6NC15CC2)C43` (centres undefined), for which the LC retention time is 3.92 min.

Take `O=S(=O)(O)ON=C(Cc1ccc(O)cc1)SC1OC(CO)C(O)C(O)C1O` (centres undefined): the LC retention time is 2 min.

As to `CC(CCC1(O)OC2CC3C4CCC5(O)CC(OC6OC(CO)C(O)C(O)C6O)C(O)CC5(C)C4CCC3(C)C2C1C)COC1OC(CO)C(O)C(O)C1O` (centres undefined), the LC retention time was 4.69 min.

Consider `COc1ccc(C2CC(=O)c3c(O)cc(O)cc3O2)cc1O` (centres undefined), for which the LC retention time is 6.04 min.

In the case of `O=C1c2c(O)cc(O)cc2OC(c2ccc(O)c(O)c2)C1O` (centres undefined), the LC retention time was 4.27 min.

On to `NC(N)=NCCCCNC(=O)C=Cc1ccc(O)cc1`, for which the LC retention time is 3.07 min.

Consider `CCCCCC=CC=CC(O)CCCCCCCC(=O)O` (centres undefined), for which the LC retention time is 9.79 min.

As to `O=c1c(OC2OC(CO)C(O)C(O)C2O)c(-c2cc(O)c(O)c(O)c2)oc2cc(O)cc(O)c12` (centres undefined), the LC retention time was 3.64 min.

Consider `O=C(C=CC=Cc1ccc2c(c1)OCO2)N1CCCCC1`, for which the LC retention time was 7.84 min.

In the case of `O=C(O)CC1CCC(=O)C1CC=CCCO` (centres undefined), the LC retention time is 3.39 min.

Regarding `OCC=Cc1ccc(O)c(O)c1`, the LC retention time is 3.18 min.

Regarding `O=c1cc(-c2ccc(O)c(O)c2)oc2c(C3OCC(O)C(O)C3O)c(O)c(C3OC(CO)C(O)C(O)C3O)c(O)c12` (centres undefined), the LC retention time was 3.35 min.

For `CSCC1OC(n2cnc3c(N)ncnc32)C(O)C1O` (centres undefined), the LC retention time was 2.7 min.

On to `O=c1c(O)c(-c2ccc(O)c(O)c2)oc2c(OC3OC(CO)C(O)C(O)C3O)c(O)cc(O)c12` (centres undefined), for which the LC retention time is 4.64 min.

On to `O=C(Cc1c[nH]c2ccccc12)NC(Cc1ccccc1)C(=O)O` (centres undefined), for which the LC retention time was 6.34 min.

`CCSSCC(NCC1(O)OCC(O)C(O)C1O)C(=O)NCCC(=O)O` (centres undefined): the LC retention time was 3.29 min.

Take `C=CC12CN(C)C3C4COC(CC41)C1(C(=O)N(OC)c4ccccc41)C32` (centres undefined): the LC retention time is 4.05 min.

Consider `O=C(C=Cc1ccc(O)cc1)OC1C(Oc2c(-c3ccc(O)cc3)oc3cc(O)cc(O)c3c2=O)OC(CO)C(O)C1O` (centres undefined), for which the LC retention time is 5.32 min.

For the molecule `Nc1ccc(C(=O)NC(CCC(=O)O)C(=O)O)cc1` (centres undefined), the LC retention time is 3.22 min.

As for `CC(CCC1(O)OC2CC3C4CC=C5CC(O)CCC5(C)C4CCC3(C)C2C1C)COC1OC(CO)C(O)C(O)C1O` (centres undefined), the LC retention time was 6.58 min.

Take `CCCCCC(O)C(O)CC=CCCCCCCCC(=O)O` (centres undefined): the LC retention time was 8.39 min.

Turning to `CC=C1CN(C)C2Cc3c([nH]c4ccccc34)C(c3cc4[nH]c5c(c4cc3OC)CCN3CC4CC(CC)C3C5(C(=O)OC)C4)CC1C2C(=O)OC` (centres undefined), the LC retention time was 4.94 min.

On to `CCC=CCC=CC=CC(CCCCCCCC(=O)O)OO` (centres undefined), for which the LC retention time was 6.77 min.

In the case of `COc1cc(C=CC(=O)OC2OC(CO)C(O)C(O)C2O)cc(OC)c1O` (centres undefined), the LC retention time was 3.54 min.

As for `CC(C)CC(N)C(=O)O` (centres undefined), the LC retention time was 1.87 min.

Take `COc1cc(C=CC(=O)NCCCCN)ccc1O`: the LC retention time was 2.7 min.

Turning to `COc1cc(C=CC(=O)NCCCCN=C(N)N)cc(OC)c1O`, the LC retention time was 3.27 min.

For the molecule `COC1OC2c3cc4c(cc3CCN(C)C2c2ccc3c(c21)OCO3)OCO4` (centres undefined), the LC retention time was 4.65 min.

As to `CC(=O)OC1C(C)OC(OC2C(c3c(O)cc(O)c4c(=O)cc(-c5ccc(O)cc5)oc34)OC(CO)C(O)C2O)C(O)C1O` (centres undefined), the LC retention time is 5.08 min.

`CCC1=CC2CN3CCc4c([nH]c5ccccc45)C(C(=O)OC)(C2)C13` (centres undefined): the LC retention time is 5.04 min.

As for `CC(C)CC(N)C(=O)NC(Cc1ccccc1)C(=O)O` (centres undefined), the LC retention time is 3.64 min.

For the molecule `CC(C)=CCCC(C)(OC1OC(CO)C(O)C(O)C1O)C1CCC2(C)C1C(O)CC1C3(C)CCC(O)C(C)(C)C3C(OC3OC(CO)C(O)C(O)C3OC3OC(C)C(O)C(O)C3O)CC12C` (centres undefined), the LC retention time was 4.79 min.

As to `COc1ccc(-c2coc3cc(OC4OC(CO)C(O)C(O)C4O)cc(O)c3c2=O)cc1` (centres undefined), the LC retention time is 5.73 min.

On to `COc1cc2c(cc1O)CC1c3c(cc(O)c(OC)c3-2)CCN1C` (centres undefined), for which the LC retention time is 3.35 min.

With `COc1cc(C(O)C(COC2OC(CO)C(O)C(O)C2O)Oc2c(OC)cc(-c3cc(=O)c4c(O)cc(O)cc4o3)cc2OC)ccc1O` (centres undefined), the LC retention time is 4.57 min.

Regarding `CC(=O)N1CCCC1C(=O)O` (centres undefined), the LC retention time is 2.46 min.

`Cc1ccc2ccc3ccc(C)nc3c2n1`: the LC retention time is 3.47 min.

As for `CS(=O)CCCCCCCCN` (centres undefined), the LC retention time was 2.49 min.
